{
  "source": "patent US10898548B2",
  "about": "“Modulators of protein tyrosine phosphatase and uses thereof” (LEUVAS THERAPEUTICS, priority 2015, dated 2021)",
  "key": {"[1]": {"tested_on": "PTPRG", "assay": "in vitro phosphatase activity (pNPP) on membranes from human primary monocytes", "assay_type": "biochemical", "conditions": "orthovanadate treatment", "procedure": "We first tested the biochemical activity of the fusion peptide by performing in vitro assays of phosphatase activity on purified membranes isolated from human primary monocytes compared to membranes isolated from human primary polymorphonuclear cells (PMNs). Human primary monocytes and polymorphonuclear (PMNs) cells were isolated from whole blood of healthy donors. Purity of monocyte preparation was evaluated by flow cytometry after staining with fluorescein isothiocyanate (FITC)-conjugated anti-CD14 antibody and was more than 95%. Isolated cells were kept at 37° C. in standard adhesion buffer (PBS, 1 mM CaCl2, 1 mM MgCl2, 10% FBS, pH 7.2) and used within 1 h.\nThe phosphatase activity in membrane fractions isolated from human monocytes and PMNs was assessed. […] Cells were then sonicated twice (6 sec, 15% W) and centrifuged at 2000 rpm for 10 minutes. The supernatants were collected and centrifuged at 28000 rpm for 60 minutes. After centrifugation, the supernatants were discarded, and the membrane pellets were dissolved in 20 mM tris pH 7.4. Equal amount of membrane fractions were added to pNPP buffer containing 20 mM tris, 10 mM DTT and 2 mM pNPP. Following, DMSO and peptides were added. After 30 minutes of incubation, levels of de-phosphorylation, in presence or absence of orthovanadate, were measured at 405 nm by a plate reader. Values are absorbance at 405 nn shown as percent fold increase over the blank; mean values of three experiments are shown. *p<0.001 vs vehicle (DMSO)."}, "[2]": {"tested_on": "human primary monocytes", "assay": "static adhesion of fMLP-stimulated monocytes to ICAM-1", "assay_type": "cell-based", "design": "adherent monocytes on ICAM-1: unit not given here", "procedure": "We investigated the functional effect of PTPRG activation on integrin activation and mediated adhesion by chemoattractants in human primary monocytes and PMNs in a static and flow adhesion assays. Briefly, human primary monocytes or polymorphonuclear cells were suspended at 5×10^6/ml in standard adhesion buffer. Adhesion assays were performed on 18-well glass slides coated with 1 mg/ml human fibrinogen or with 1 μg/ml human ICAM-1 in PBS; 20 μl of cell suspension were added to the coated wells and stimulated for 1 min at 37° C. with 5 μl of fMLP, 0.05 μM final concentration. After rapid washing, adherent cells were fixed in ice-cold 1.5% glutaraldehyde in PBS, and still images of adherent cells in 0.2 mm^2 fields were acquired al 20× phase contrast magnification, NA 0.40, with a charge-coupled device camera (ICD-42B; Ikegami) connected to an inverted microscope (IX50; Olympus). Image acquisition and computer-assisted enumeration of adherent cells were performed with ImageJ (National Institute of Health).\nWe then investigated the functional effect of TAT-ICD on integrin activation and mediated adhesion by chemoattractants. Static adhesion assays were performed as described in Example 2. […] Data are mean number of adherent cells in 5 experiments in triplicate.\nTo evaluate whether JAK2 mediates chemoattractant-induced adhesion of human monocytes to beta-2 integrin substrates human monocytes were treated control buffer or P1 or with the three JAK inhibitors. Briefly, human monocytes were treated with buffer (CTRL=control), or 40 μM P1 or P1-TKIP peptides, 100 μM AG490 or 200 μM WHI-P154 for 1 hour at 37° C. and stimulated with 50 nM fMLP for 60 sec.; data are mean and standard deviation (SD) of 6 experiments in triplicate.\nHuman primary monocytes were isolated from buffy coats from healthy donors and pre-incubated for 30 minutes at room temperature with our without 0.075 micromolar PTPX. Standard adhesion assays on ICAM-1 coated glass slides. Cell suspensions were added to the coated wells for 1 minute, stimulated for 1 minute at 37° C. with […] fMLP. Non-adherent cells were washed away and adherent cells were fixed in ice-cold 1.5% glutaraldehyde in PBS and adherent cells were counted using computer assisted automatic quantification. Data are from a representative experiment and are the mean and standard deviation of 24 measurements per condition (Table 35)."}, "[3]": {"tested_on": "human primary monocytes", "assay": "static adhesion of fMLP-stimulated monocytes to ICAM-1", "assay_type": "cell-based", "design": "unit not given here", "conditions": "0.075 micromolar PTPX, 30 minutes; 50 nM fMLP; Control 212.8"}, "[4]": {"target": "T1, JAK2 (Homo sapiens, UniProt O60674)", "T1 construct": "endogenous in cells; host or cells: human primary monocytes", "T1 sequence (O60674 whole entry)": "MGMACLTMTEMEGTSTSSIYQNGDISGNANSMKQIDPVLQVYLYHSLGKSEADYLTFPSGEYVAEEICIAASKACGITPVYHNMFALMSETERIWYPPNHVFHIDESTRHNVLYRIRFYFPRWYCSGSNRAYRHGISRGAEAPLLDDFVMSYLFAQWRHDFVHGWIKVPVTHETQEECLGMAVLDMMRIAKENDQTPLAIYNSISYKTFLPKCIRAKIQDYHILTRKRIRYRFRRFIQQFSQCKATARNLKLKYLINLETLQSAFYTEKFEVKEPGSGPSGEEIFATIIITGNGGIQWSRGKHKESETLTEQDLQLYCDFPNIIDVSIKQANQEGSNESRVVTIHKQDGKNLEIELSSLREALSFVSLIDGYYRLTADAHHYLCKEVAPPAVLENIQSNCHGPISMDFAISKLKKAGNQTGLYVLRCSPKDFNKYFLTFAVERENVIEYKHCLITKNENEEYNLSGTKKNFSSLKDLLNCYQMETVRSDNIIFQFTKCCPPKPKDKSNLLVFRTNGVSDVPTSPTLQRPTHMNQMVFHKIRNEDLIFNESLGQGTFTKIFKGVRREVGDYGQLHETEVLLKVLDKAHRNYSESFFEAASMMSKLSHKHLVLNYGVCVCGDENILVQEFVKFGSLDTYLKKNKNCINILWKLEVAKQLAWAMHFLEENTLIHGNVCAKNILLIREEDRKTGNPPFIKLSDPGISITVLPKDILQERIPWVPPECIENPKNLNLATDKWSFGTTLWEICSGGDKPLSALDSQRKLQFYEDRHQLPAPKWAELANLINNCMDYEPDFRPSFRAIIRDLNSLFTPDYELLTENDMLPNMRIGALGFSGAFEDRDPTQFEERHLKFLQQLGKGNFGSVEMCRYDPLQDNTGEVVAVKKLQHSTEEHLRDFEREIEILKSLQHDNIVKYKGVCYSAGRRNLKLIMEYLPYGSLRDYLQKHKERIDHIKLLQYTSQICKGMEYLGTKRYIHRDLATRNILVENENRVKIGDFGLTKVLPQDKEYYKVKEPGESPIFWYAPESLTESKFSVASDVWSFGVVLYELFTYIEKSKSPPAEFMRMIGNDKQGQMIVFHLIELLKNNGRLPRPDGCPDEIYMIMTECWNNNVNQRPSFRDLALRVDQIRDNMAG", "assay": "phospho-JAK2 Western Blot on monocytes", "assay_type": "cell-based", "conditions": "monocytes, Resting 20.2", "description": "(§1) JAK2 regulation by PTPRG as assessed through the high-throughput phospho-proteomics analysis evidenced that PTPRG activation (Example 4, Table 9 and 10) provides a useful example of the exploitation of this analysis system for identification of targets and unexpected indications/uses for known and novel agents that regulate the phoshoproteome. […] Furthermore, the capability of fMLP to trigger JAKs activation has never been observed. The results described in Example 4 unexpectedly implicate JAK2 de-phosphorylation by PTPRG as playing a role in the anti-adhesive role of PTPRG on monocytes. To test this system-generated hypothesis we first set out to define the role of JAK2 in fMLP-triggered rapid adhesion in monocytes. Time course experiments, either performed with ELISA assay or Western Blot. Briefly, purified human monocytes were treated with buffer (resting) or with 50 nM fMLP for the indicated times (Table 12), and the phosphorylation was assessed by p-Jak2 elisa and Western Blot analysis. The JAK2 activation was determined with Elisa Kit JAK2 (pYpY1007/1008) (Invitrogen). Briefly, cells were stimulated with agonist and lysed following manufacturer's protocol; levels of phospho-JAK2 were quantified (absorbance at 450 nm) with a micro-well plate reader (Victor™ X5 Multilabel Plate Reader, Perkin Elmer). For Western blot analysis, cells were lysed in ice-cold 1% Nonidet P-40 buffer, containing phosphatase inhibitors and complete protease inhibitor cocktail (Roche). Total cell lysates were quantified by Bradford assay (Bio-Rad). Equal amounts of total lysates or of isolated membranes (as described in Example 1) were subjected to 10% SDS-PAGE and then blotted. After incubation with anti-PTPRG, anti gp91^Phox, anti phospho-JAK2, anti JAK2 and HRP-linked secondary antibodies (GE Healthcare), immunoreactive bands were visualized by ECL detection (EMD Millipore). Intensities of band signals were quantified by densitometric analysis (Quantity One, Bio-Rad) by using ImageQuant Las4000. Data are mean value of three experiments; the relative ratio of the band intensity of phosphor-JAK2 was normalized to the level of JAK2 band intensities.\nTo evaluate whether JAK2 mediates fMLP-triggered rapid adhesion in human monocytes, we tested the capability of three JAK inhibitors, AG490, WHI-P154 and P1-TKIP peptide, to block adhesion triggering. Briefly, Monocytes were treated with buffer (resting and Control=CTRL), 100 μM AG490, 40 μM P1 or P1-TKIP peptides, or 200 μM WHI-P154 for 1 hour at 37° C. and stimulated with 50 nM fMLP for 180 sec. Cell lysates were probed with anti phospho-JAK2 and with anti JAK2. Western Blot immuoreactive band quantification; the relative ratio of the band intensity of phospho-JAK2 was normalized to the level of JAK2 band intensities; mean values of three experiments (Table 13).\nThe impact of TAT-ICD and P1-WD on JAK2 activation by chemoattractants was also evaluated by Western Blot analysis. Briefly, monocytes were treated with buffer (Resting, CTRL), 0.5 uM TAT-ICD, 50 μM TAT peptide, 50 μM P1-WD, P1 or P1-WD scrambled peptides for 1 hour at 37° C. and stimulated with 50 nM fMLP for 180 sec (the resting cells were not stimulated with fMLP). Total lysates were probed with anti phospho-JAK2 or with anti JAK. Western Blot immunoreactive bands were quantified and the relative ratio of the band intensity of phospho-JAK2 was normalized to the level of JAK2 band intensities; data are mean value and standard deviation of three experiments (Table 19)."}, "[5]": {"tested_on": "JAK2 (pYpY1007/1008)", "assay": "p-JAK2 ELISA on monocytes", "assay_type": "cell-based, human", "conditions": "monocytes, Resting 100.0, in % (unit assumed)", "description": "as §1\nBriefly, p-JAK2 ELISA assay on human monocytes treated with buffer (CTRL=control), 50 μM P1-WD, P1 or P1-WD scrambled peptides (Table 17), or with buffer (CTRL=control), 0.5 uM TAT-ICD or 50 μM TAT peptide (Table 18) for 1 hour at 37° C. and stimulated with 50 nM fMLP for 90 sec. Shown are percentages of fold increases over the control; mean values of 3 experiments in triplicate."}},
  "data": [
    {"compound": "[Na+].[Na+].[Na+].[O]=[V]([O-])([O-])[O-]", "note": "[Orthovanadate, Na3VO4, reference compound]", "values": [
      {"measurement": "phosphatase activity elicited in membranes", "setting": "[1]", "value": "completely prevented phosphatase activity"}
    ]},
    {"compound": "PTPx: external domain of PTPRG, amino acids 20-736, produced with a histidine tag", "values": [
      {"measurement": "adherent monocytes on ICAM-1", "setting": "[2]; 0.075 micromolar PTPX, 30 minutes, No Agonist, Control 22.2", "value": 3.4},
      {"measurement": "adherent monocytes on ICAM-1", "setting": "[3]", "value": 32.7}
    ]},
    {"compound": "fMLP", "values": [
      {"measurement": "increase in monocyte adhesion to ICAM-1", "setting": "[2]; stimulation with fMLP vs no agonist", "value": "approximately 10 fold"},
      {"measurement": "phospho-JAK2 band intensity normalized to JAK2, Western Blot", "setting": "[4]; 50 nM fMLP 90″", "value": 37.8},
      {"measurement": "phospho-JAK2 band intensity normalized to JAK2, Western Blot", "setting": "[4]; 50 nM fMLP 120″", "value": 46.7},
      {"measurement": "phospho-JAK2 band intensity normalized to JAK2, Western Blot", "setting": "[4]; 50 nM fMLP 180″", "value": 58.5},
      {"measurement": "phospho-JAK2 level, ELISA", "setting": "[5]; 50 nM fMLP 90″", "value": 107.3},
      {"measurement": "phospho-JAK2 level, ELISA", "setting": "[5]; 50 nM fMLP 120″", "value": 128.3},
      {"measurement": "phospho-JAK2 level, ELISA", "setting": "[5]; 50 nM fMLP 180″", "value": 155.7}
    ]}
  ]
}
